Laboratory results from PubChem BioAssay (NCI).
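48-hour exposure; five concentrations; linearly interpolated endpoints. GI50 = concentration required for 50% inhibition of growth. At the TGI there is no net growth.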

Experiments:
Assay in all cases: NCI-60 cell line screen, 48 h
TK-10 renal = tested on: TK-10 renal
MDA-MB-435 = tested on: MDA-MB-435
HT29 colon = tested on: HT29 colon
HCT-116 colon = tested on: HCT-116 colon
BT-549 breast = tested on: BT-549 breast
SK-MEL-2 melanoma = tested on: SK-MEL-2 melanoma
ACHN renal = tested on: ACHN renal
HOP-92 NSCLC = tested on: HOP-92 NSCLC
OVCAR-3 ovarian = tested on: OVCAR-3 ovarian
CCRF-CEM leukemia = tested on: CCRF-CEM leukemia
KM12 colon = tested on: KM12 colon
A498 renal = tested on: A498 renal
SK-OV-3 ovarian = tested on: SK-OV-3 ovarian
HL-60(TB) leukemia = tested on: HL-60(TB) leukemia
HS 578T breast = tested on: HS 578T breast
MDA-MB-231 breast = tested on: MDA-MB-231 breast
SF-539 CNS = tested on: SF-539 CNS
SNB-19 CNS = tested on: SNB-19 CNS
OVCAR-4 ovarian = tested on: OVCAR-4 ovarian
SW-620 colon = tested on: SW-620 colon
MCF7 breast = tested on: MCF7 breast
T-47D breast = tested on: T-47D breast
LOX IMVI melanoma = tested on: LOX IMVI melanoma
HCC-2998 colon = tested on: HCC-2998 colon
A549 NSCLC = tested on: A549 NSCLC
DU-145 prostate = tested on: DU-145 prostate
NCI/ADR-RES ovarian = tested on: NCI/ADR-RES ovarian

Cc1cc(Nc2nc(-c3cn(-c4ccc(Cl)cc4)nn3)nc3ccccc23)n[nH]1 showed a GI50 (TK-10 renal) of 6.69 µM, a TGI (TK-10 renal) of 39.3 µM and a GI50 (MDA-MB-435) of 11.6 µM. It also gave a TGI (MDA-MB-435) greater than 50 µM, a GI50 (HT29 colon) of 23.5 µM and a TGI (HT29 colon) greater than 50 µM. For the same compound, the GI50 (HCT-116 colon) was 7.64 µM, the TGI (HCT-116 colon) was 25.4 µM and the GI50 (BT-549 breast) was 15 µM. For the same compound, the TGI (BT-549 breast) was greater than 50 µM, the GI50 (SK-MEL-2 melanoma) was 8.23 µM and the TGI (SK-MEL-2 melanoma) was 29.8 µM. The GI50 (ACHN renal) was 3.62 µM, the TGI (ACHN renal) was greater than 50 µM and the GI50 (HOP-92 NSCLC) was 23.6 µM. The TGI (HOP-92 NSCLC) was greater than 50 µM, the GI50 (OVCAR-3 ovarian) was 10.5 µM and the TGI (OVCAR-3 ovarian) was 23.4 µM. For the same compound, the GI50 (CCRF-CEM leukemia) was 19.5 µM, the TGI (CCRF-CEM leukemia) was greater than 50 µM and the GI50 (KM12 colon) was 4.95 µM. It also gave a TGI (KM12 colon) greater than 50 µM, a GI50 (A498 renal) greater than 50 µM and a TGI (A498 renal) greater than 50 µM. For the same compound, the GI50 (SK-OV-3 ovarian) was 6.82 µM, the TGI (SK-OV-3 ovarian) was 48.5 µM and the GI50 (HL-60(TB) leukemia) was 18.3 µM. It also gave a TGI (HL-60(TB) leukemia) greater than 50 µM, a GI50 (HS 578T breast) greater than 50 µM and a TGI (HS 578T breast) greater than 50 µM. The GI50 (MDA-MB-231 breast) was 17.7 µM, the TGI (MDA-MB-231 breast) was greater than 50 µM and the GI50 (SF-539 CNS) was 27.3 µM. For the same compound, the TGI (SF-539 CNS) was greater than 50 µM, the GI50 (SNB-19 CNS) was greater than 50 µM and the TGI (SNB-19 CNS) was greater than 50 µM. For the same compound, the GI50 (OVCAR-4 ovarian) was 10.1 µM, the TGI (OVCAR-4 ovarian) was greater than 50 µM and the GI50 (SW-620 colon) was 12.5 µM. The TGI (SW-620 colon) was greater than 50 µM, the GI50 (MCF7 breast) was 27 µM and the TGI (MCF7 breast) was greater than 50 µM. The GI50 (T-47D breast) was 13.1 µM, the TGI (T-47D breast) was 42.3 µM and the GI50 (LOX IMVI melanoma) was 9.7 µM. The TGI (LOX IMVI melanoma) was greater than 50 µM, the GI50 (HCC-2998 colon) was 36.4 µM and the TGI (HCC-2998 colon) was greater than 50 µM. For the same compound, the GI50 (A549 NSCLC) was 11.4 µM, the TGI (A549 NSCLC) was greater than 50 µM and the GI50 (DU-145 prostate) was 10.7 µM. It also gave a TGI (DU-145 prostate) greater than 50 µM, a GI50 (NCI/ADR-RES ovarian) of 1.58 µM and a TGI (NCI/ADR-RES ovarian) greater than 50 µM.
